Reference: patent US10173971B2, “Picolinamides with fungicidal activity” (DOW AGROSCIENCES LLC, priority 2014, dated 2019)
Read-outs that look alike come from different tables or passages of the source.

Experiments:
[1] = system: Zymoseptoria tritici; test: Fungicidal activity: leaf blotch of wheat (SEPTTR), wheat seedlings, booth sprayer to run-off or track spray; assay type: in vivo; conditions: for pest or weed control at 121.5 g/ha: Low-Volume Cereal Activity at 121.5 g/H; for pest or weed control at 100 ppm: High-Volume Cereal Activity at 100 ppm
Procedure: All fungicides were evaluated using the aforementioned method for their activity vs. all target diseases. Wheat leaf blotch and brown rust activity were also evaluated using track spray applications, in which case the fungicides were formulated as EC formulations, containing 0.1% Trycol 5941 in the spray solutions. Wheat plants (variety Yuma) were grown from seed in a greenhouse in 50% mineral soil/50% soil-less Metro mix until the first leaf was fully emerged, with 7-10 seedlings per pot. These plants were inoculated with an aqueous spore suspension of Zymoseptoria tritici either prior to or after fungicide treatments. After inoculation the plants were kept in 100% relative humidity (one day in a dark dew chamber followed by two to three days in a lighted dew chamber at 20° C.) to permit spores to germinate and infect the leaf. The plants were then transferred to a greenhouse set at 20° C. for disease to develop. When disease symptoms were fully expressed on the 1st leaves of untreated plants, infection levels were assessed on a scale of 0 to 100 percent disease severity. Percent disease control was calculated using the ratio of disease severity on treated plants relative to untreated plants.

[2] = system: Puccinia triticina; test: Fungicidal activity: wheat brown rust (PUCCRT), wheat seedlings, booth sprayer to run-off or track spray; assay type: in vivo; conditions: for pest or weed control at 121.5 g/ha: Low-Volume Cereal Activity at 121.5 g/H; for pest or weed control at 100 ppm: High-Volume Cereal Activity at 100 ppm
Procedure: All fungicides were evaluated using the aforementioned method for their activity vs. all target diseases. Wheat leaf blotch and brown rust activity were also evaluated using track spray applications, in which case the fungicides were formulated as EC formulations, containing 0.1% Trycol 5941 in the spray solutions. Wheat plants (variety Yuma) were grown from seed in a greenhouse in 50% mineral soil/50% soil-less Metro mix until the first leaf was fully emerged, with 7-10 seedlings per pot. These plants were inoculated with an aqueous spore suspension of Puccinia triticina either prior to or after fungicide treatments. […] The plants were then transferred to a greenhouse set at 24° C. for disease to develop. Fungicide formulation, application and disease assessment followed the procedures as described in the Example A.

[3] = 24 h, 1 Day Protectant, read-out: SEPTTR 1DP
[4] = 72 h, 3 Day Curative, read-out: SEPTTR 3DC
[5] = 24 h, 1 Day Protectant, read-out: PUCCRT 1DP
[6] = 72 h, 3 Day Curative, read-out: PUCCRT 3DC
[7] = 3DC (Day Curative), read-out: SEPTTR 3DC
[8] = 3DC (Day Curative), read-out: PUCCRT 3DC

Structure (SMILES)	pest or weed control at 121.5 g/ha [1, 3]	pest or weed control at 121.5 g/ha [1, 4]	pest or weed control at 121.5 g/ha [2, 5]	pest or weed control at 121.5 g/ha [2, 6]	pest or weed control at 100 ppm [1, 3]	pest or weed control at 100 ppm [1, 7]	pest or weed control at 100 ppm [2, 8]	pest or weed control at 100 ppm [2, 5]
COc1ccnc(C(=O)N[C@@H](C)C(=O)O[C@@H](C)[C@@H](COCc2ccccc2)Cc2ccc(F)cc2)c1OC(C)=O [compound 228]	80 to 100%	0 to 80%	0 to 80%	0 to 80%				
COc1ccnc(C(=O)N[C@@H](C)C(=O)O[C@@H](C)[C@H](Cc2ccc(F)cc2)C(C)(C)OCc2ccccc2)c1OCOC(C)=O [compound 241]	80 to 100%	80 to 100%	80 to 100%	0 to 80%				
COc1ccnc(C(=O)N[C@@H](C)C(=O)O[C@@H](C)[C@@H](COCCC(C)C)Cc2ccc(F)cc2)c1O [compound 140]					0 to 80%	0 to 80%	0 to 80%	
COc1cccc(CC(Cc2cccc(OC)c2)[C@H](C)OC(=O)[C@H](C)NC(=O)c2nccc(OC)c2O)c1 [compound 152]							0 to 80%	80 to 100%
CCCO[C@@H](CC)[C@@H](Cc1ccccc1)[C@H](C)OC(=O)C(C)(C)NC(=O)c1nccc(OC)c1O [compound 100]						0 to 80%		0 to 80%
CC[C@H](Cc1ccccc1)[C@@H](Cc1ccc(F)cc1)[C@H](C)OC(=O)[C@H](C)NC(=O)c1nccc(OC)c1OCOC(C)=O [compound 174]	80 to 100%	0 to 80%	80 to 100%	0 to 80%				
CCCC[C@@H]([C@H](C)OC(=O)[C@H](C)NC(=O)c1nccc(OC)c1OCOC(C)=O)[C@@H](CC)Oc1ccccc1 [compound 189]	80 to 100%	0 to 80%	80 to 100%	80 to 100%				
CCCOC[C@@H](Cc1ccccc1)[C@H](C)OC(=O)[C@H](CC)NC(=O)c1nccc(OC)c1OCOC(C)=O [compound 167]	80 to 100%	0 to 80%	80 to 100%	80 to 100%	80 to 100%	80 to 100%	80 to 100%	80 to 100%
CC[C@@H](Oc1ccccc1)[C@@H](Cc1ccccc1)[C@H](C)OC(=O)[C@H](C)NC(=O)c1nccc(OC)c1O [compound 118]					80 to 100%	0 to 80%	80 to 100%	0 to 80%
CC[C@H](NC(=O)c1nccc(OC)c1OC(C)=O)C(=O)O[C@@H](C)C(Cc1ccc(OC)cc1)Cc1cccc(OC)c1 (stereo partly drawn) [compound 273]	80 to 100%	0 to 80%	0 to 80%	0 to 80%				
CCCOC[C@@H](Cc1ccccc1)[C@H](C)OC(=O)[C@H](CC)NC(=O)c1nccc(OC)c1O [compound 98]					80 to 100%	80 to 100%	80 to 100%	80 to 100%
CCOCC(=O)OCOc1c(OC)ccnc1C(=O)N[C@@H](C)C(=O)O[C@@H](C)[C@@H](COCc1ccc(F)cc1)Cc1ccc(F)cc1 [compound 253]	80 to 100%	0 to 80%	80 to 100%	0 to 80%				
COc1ccnc(C(=O)N[C@@H](C)C(=O)O[C@@H](C)[C@@H](COc2ccccc2)Cc2ccccc2)c1O [compound 125]					0 to 80%	0 to 80%	0 to 80%	0 to 80%
COc1ccc(C[C@H](COCC2CC2)[C@H](C)OC(=O)[C@H](C)NC(=O)c2nccc(OC)c2OCOC(C)=O)cc1Cc1ccccc1 [compound 281]	0 to 80%	80 to 100%	80 to 100%	0 to 80%				
COc1ccnc(C(=O)N[C@@H](C)C(=O)OC(C)C(Cc2cccc(F)c2)Cc2cccc(F)c2)c1O (stereo partly drawn) [compound 150]					80 to 100%			80 to 100%
CC[C@H](CCCc1ccccc1)[C@@H](CC(C)C)[C@H](C)OC(=O)C(C)NC(=O)c1nccc(OC)c1OC(C)=O (stereo partly drawn) [compound 172]	0 to 80%	0 to 80%	80 to 100%	0 to 80%				
COc1ccnc(C(=O)N[C@@H](C)C(=O)O[C@@H](C)[C@H](CCC(C)C)c2ccccc2)c1OC(=O)C(C)C [compound 211]	80 to 100%	80 to 100%	0 to 80%					

Structure (SMILES)	pest or weed control at 121.5 g/ha [1, 3]	pest or weed control at 121.5 g/ha [1, 4]	pest or weed control at 121.5 g/ha [2, 5]	pest or weed control at 121.5 g/ha [2, 6]	pest or weed control at 100 ppm [1, 3]	pest or weed control at 100 ppm [1, 7]	pest or weed control at 100 ppm [2, 8]	pest or weed control at 100 ppm [2, 5]
CCCO[C@@H](CC)[C@@H](Cc1ccccc1)[C@H](C)OC(=O)[C@@H](C)NC(=O)c1nccc(OC)c1OCOC(C)=O [compound 163]					0 to 80%	0 to 80%	80 to 100%	80 to 100%
CCCO[C@@H](CC)[C@@H](Cc1ccccc1)[C@H](C)OC(=O)[C@H](CC)NC(=O)c1nccc(OC)c1OCOC(C)=O [compound 164]	0 to 80%	0 to 80%	80 to 100%	80 to 100%	80 to 100%	80 to 100%	80 to 100%	80 to 100%
CC[C@H](Cc1ccccc1)[C@@H](Cc1ccc(F)cc1)[C@H](C)OC(=O)[C@H](C)NC(=O)c1nccc(OC)c1O [compound 103]					80 to 100%	0 to 80%	0 to 80%	80 to 100%
COc1ccnc(C(=O)N[C@@H](C)C(=O)O[C@@H](C)[C@H](Cc2ccc(F)cc2)C(C)(C)OC)c1O [compound 136]						80 to 100%	0 to 80%	0 to 80%
COc1ccnc(C(=O)N[C@@H](C)C(=O)O[C@@H](C)[C@H](Cc2ccc(C)cc2)c2ccccc2)c1OCOC(C)=O [compound 221]	80 to 100%	80 to 100%	80 to 100%	0 to 80%				
CC[C@H](Cc1ccc(C(F)(F)F)cc1)[C@@H](Cc1ccc(F)cc1)[C@H](C)OC(=O)CNC(=O)c1nccc(OC)c1OC(C)=O [compound 183]			0 to 80%					
CCCOC[C@@H](Cc1ccccc1)[C@H](C)OC(=O)CNC(=O)c1nccc(OC)c1OC(C)=O [compound 176]			80 to 100%	0 to 80%				
COC(=O)[C@@H](Cc1ccccc1)[C@H](C)OC(=O)[C@H](C)NC(=O)c1nccc(OC)c1OC(C)=O [compound 186]	0 to 80%							
CC[C@H](Cc1ccc(C(F)(F)F)cc1)[C@@H](Cc1ccc(F)cc1)[C@H](C)OC(=O)[C@H](COC)NC(=O)c1nccc(OC)c1O [compound 110]								80 to 100%
C=C[C@H](Cc1ccc(C(F)(F)F)cc1)[C@@H](Cc1ccc(F)cc1)[C@H](C)OC(=O)CNC(=O)c1nccc(OC)c1O [compound 109]								0 to 80%
COc1ccnc(C(=O)N[C@@H](C)C(=O)O[C@@H](C)[C@H](Cc2ccccc2)c2ccccc2)c1O [compound 119]						0 to 80%		
COc1ccnc(C(=O)N[C@@H](C)C(=O)O[C@@H](C)[C@H](Cc2ccc(Cl)c(Cl)c2)c2ccccc2)c1OC(=O)C(C)C [compound 217]	0 to 80%	0 to 80%						
C=C[C@H](Cc1ccc(C(F)(F)F)cc1)[C@@H](Cc1ccc(F)cc1)[C@H](C)OC(=O)[C@H](COC)NC(=O)c1nccc(OC)c1O [compound 107]								0 to 80%
CC[C@H](Cc1ccc(C(F)(F)F)cc1)[C@@H](Cc1ccc(F)cc1)[C@H](C)OC(=O)[C@H](C)NC(=O)c1nccc(OC)c1OC(C)=O [compound 182]			0 to 80%	0 to 80%				
COc1ccnc(C(=O)N[C@@H](C)C(=O)O[C@@H](C)[C@H](Cc2ccccc2)C(C)C)c1O [compound 122]								0 to 80%
CCCOC[C@@H](Cc1ccc(OC)cc1)[C@H](C)OC(=O)[C@H](C)NC(=O)c1nccc(OC)c1OCOC(C)=O [compound 256]			80 to 100%	80 to 100%				
